Experiments:
CYP1A1/2 = experiment: ethoxyresorufin deethylation activity in human hepatic microsome
Protocol: (§1) 4-2. Effect of the Oxazole Compound (I) on the Enzymatic Activity of Each Molecular Species of Cytochrome P450 (CYP)
(§2) Basic reaction composition (0.5 ml) was consisting of microsome protein 0.2-1 mg/ml, 100 mM phosphate buffer (pH 7.4), 0.1 mM EDTA, NADPH generation system (2.5 mM β-NADP, 25 mM glucose-6-phosphate, 2 units glucose-6-phosphate dehydrogenase and 10 mM magnesium chloride), with or without each substrate and inhibitor, and the reaction was performed at 37° C. for 10-60 minutes. Each substrate and its concentration used were 7-ethoxyresorufln (0.5 μM), coumarin (2 μM), 7-benzyloxyresorufin (1.5 μM), tolbutamide (400 μM), S-mephenyloin (100 μM), bufuralol (20 μM), chlorzoxazone (100 μM), testosterone (100 μM) and nifedipine (50 μM).
(§3) Generated products after the metabolic response were measured by using high performance liquid chromatography after extraction.

CYP2D6 = CYP2D6 (Homo sapiens, UniProt P10635); experiment: bufuralol hydroxylation activity in human hepatic microsome; conditions: liver microsomes, pH 7.4, probe bufuralol (20 μM)
CYP2D6, sequence (P10635 whole entry): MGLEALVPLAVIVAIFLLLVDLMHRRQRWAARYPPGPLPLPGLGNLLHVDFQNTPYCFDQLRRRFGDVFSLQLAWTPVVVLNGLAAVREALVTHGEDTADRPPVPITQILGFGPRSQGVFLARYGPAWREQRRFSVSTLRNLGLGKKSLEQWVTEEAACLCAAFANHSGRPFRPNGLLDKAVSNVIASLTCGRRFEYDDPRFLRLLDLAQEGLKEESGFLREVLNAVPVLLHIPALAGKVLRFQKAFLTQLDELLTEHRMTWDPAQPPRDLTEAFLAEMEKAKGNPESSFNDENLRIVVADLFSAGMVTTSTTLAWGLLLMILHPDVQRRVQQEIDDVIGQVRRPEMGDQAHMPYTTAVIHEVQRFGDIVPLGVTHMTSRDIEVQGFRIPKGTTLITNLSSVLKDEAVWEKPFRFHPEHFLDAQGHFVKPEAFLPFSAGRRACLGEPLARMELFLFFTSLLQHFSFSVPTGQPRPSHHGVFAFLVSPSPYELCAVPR
Protocol: as §1, §2, §3

[1] = test system: hepatic microsomal enzyme; experiment: In vitro metabolism, rat hepatic microsome; type: in vitro ADME; conditions: 100 μM, microsome protein 1 mg/ml, 37° C., 2 hours
Protocol: (§4) 4-1. In Vitro Metabolism of Oxazole Compound (I)
(§5) Studies on in vitro metabolism of oxazole compound (I) (compound (A-R)) were performed using hepatic microsomal enzyme of human and various animals (mouse, rat, dog, rabbit and monkey). Human microsome was obtained from Attached Primate Research Institute, HAB Discussion Group (Chiba, Japan). […] The reaction was terminated by adding organic solvent (acetonitrile or ethyl acetate) and generated metabolites were extracted. The extracted metabolites were detected by using high performance liquid chromatography and liquid chromatograph electrospray ionization tandem mass spectrometry to confirm amount of generation.

[2] = test system: intracellular parasitic tubercle bacillus (M. tuberculosis H37Rv) in THP-1 cells; experiment: Effect on intracellular parasitic tubercle bacillus in THP-1 cells; type: cell-based
[3] = test system: hepatic microsomal enzyme; experiment: In vitro metabolism, dog hepatic microsome; type: in vitro ADME; conditions: 100 μM, microsome protein 1 mg/ml, 37° C., 2 hours
Protocol: as §4, §5

CYP2B6 = target: T1, CYP2B6 (Homo sapiens, UniProt P20813); experiment: 7-benzyloxyresorufin debenzylation activity in human hepatic microsome; conditions: microsomes, pH 7.4
T1 sequence (P20813 1-491): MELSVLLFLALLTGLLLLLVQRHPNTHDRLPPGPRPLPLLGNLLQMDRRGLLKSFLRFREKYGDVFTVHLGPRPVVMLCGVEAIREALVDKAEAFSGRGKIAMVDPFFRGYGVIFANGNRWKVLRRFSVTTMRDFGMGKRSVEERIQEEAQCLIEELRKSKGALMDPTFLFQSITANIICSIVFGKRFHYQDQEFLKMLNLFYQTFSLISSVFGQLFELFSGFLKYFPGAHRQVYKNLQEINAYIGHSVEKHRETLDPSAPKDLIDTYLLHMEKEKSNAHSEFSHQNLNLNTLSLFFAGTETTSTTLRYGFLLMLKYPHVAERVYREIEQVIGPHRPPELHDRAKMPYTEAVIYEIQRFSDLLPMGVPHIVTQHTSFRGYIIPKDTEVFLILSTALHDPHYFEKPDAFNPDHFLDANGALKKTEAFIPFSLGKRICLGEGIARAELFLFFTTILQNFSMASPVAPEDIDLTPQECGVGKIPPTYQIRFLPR
Protocol: as §1, §2, §3

CYP2C8/9 = experiment: tolbutamide hydroxylation activity in human hepatic microsome
Protocol: as §1, §2, §3

[4] = test system: hepatic microsomal enzyme; experiment: In vitro metabolism, monkey hepatic microsome; type: in vitro ADME; conditions: 100 μM, microsome protein 1 mg/ml, 37° C., 2 hours
Protocol: as §4, §5

CYP2C19 = CYP2C19 (Homo sapiens, UniProt P33261); experiment: S-mephenytoin hydroxylation activity in human hepatic microsome; conditions: liver microsomes, pH 7.4, probe S-mephenytoin (100 μM)
CYP2C19, sequence (P33261 whole entry): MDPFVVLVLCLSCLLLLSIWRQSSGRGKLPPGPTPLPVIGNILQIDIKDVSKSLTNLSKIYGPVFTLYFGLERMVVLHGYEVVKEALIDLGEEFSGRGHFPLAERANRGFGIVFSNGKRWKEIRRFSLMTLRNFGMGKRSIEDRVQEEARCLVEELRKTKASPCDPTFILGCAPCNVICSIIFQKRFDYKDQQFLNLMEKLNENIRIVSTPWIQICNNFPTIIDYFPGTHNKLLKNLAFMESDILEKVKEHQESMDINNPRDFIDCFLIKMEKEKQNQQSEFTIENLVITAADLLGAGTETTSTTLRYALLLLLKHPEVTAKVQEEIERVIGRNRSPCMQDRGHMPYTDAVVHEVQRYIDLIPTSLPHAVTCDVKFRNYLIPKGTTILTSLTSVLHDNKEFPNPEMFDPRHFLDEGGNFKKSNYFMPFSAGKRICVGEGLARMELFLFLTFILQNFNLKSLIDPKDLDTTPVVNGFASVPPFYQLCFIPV
Protocol: as §1, §2, §3

[5] = test system: clinical isolates of tubercle bacillus, TBT-9 and TBT-14; experiment: In vitro combined effect: MIC on 7H11 agar plates and FIC index; type: cell-based; conditions: 37° C., 2 weeks; for MIC: Bacillus, 336 h, each agent alone
Protocol: In Vitro Experiment on the Combined Effect of an Oxazole Compound (I) and Another Agent
A suspension of tubercle bacillus was prepared at about 10^6 CFU/ml (for clinical isolates of tubercle bacillus, TBT-9 and TBT-14). About 10 μl aliquots thereof were inoculated on respective plates by using a multipoint inoculator.

[6] = test system: Experimental mouse tuberculosis model; experiment: In vivo experiments for intermittent administration, experimental mouse tuberculosis model; conditions: three times a week, twice a week or once a week; alone or in combination with conventional antituberculous drugs
Text: In Vivo Experiments for Intermittent Administration

CYP2A6 = target: T2, CYP2A6 (Homo sapiens, UniProt P11509); experiment: coumarin hydroxylation activity in human hepatic microsome
T2 sequence (P11509 1-494): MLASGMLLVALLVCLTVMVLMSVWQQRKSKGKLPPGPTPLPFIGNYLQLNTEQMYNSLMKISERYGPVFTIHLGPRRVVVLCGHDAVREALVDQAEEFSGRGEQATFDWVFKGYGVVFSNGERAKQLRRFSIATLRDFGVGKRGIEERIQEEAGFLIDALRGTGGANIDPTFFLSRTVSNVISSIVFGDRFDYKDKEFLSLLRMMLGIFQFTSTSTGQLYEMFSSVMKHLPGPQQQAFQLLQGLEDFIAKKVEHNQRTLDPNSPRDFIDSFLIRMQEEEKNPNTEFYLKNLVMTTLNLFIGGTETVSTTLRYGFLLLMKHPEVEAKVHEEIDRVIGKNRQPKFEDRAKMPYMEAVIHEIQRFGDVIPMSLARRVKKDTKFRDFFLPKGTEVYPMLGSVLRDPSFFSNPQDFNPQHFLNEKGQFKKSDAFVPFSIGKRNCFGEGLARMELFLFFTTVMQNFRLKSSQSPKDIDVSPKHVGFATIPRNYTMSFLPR
Protocol: as §1, §2, §3

[7] = test system: each CYP enzyme (CYP1A/2, CYP2A6, CYP2B6, CYP2C8/9, CYP2C19, CYP2D6, CYP2E1 and CYP3A4); experiment: Summary: effect on each CYP enzyme activity in human hepatic microsome; conditions: up to 100 μM
Protocol: as §1, §2, §3

[8] = test system: hepatic microsomal enzyme; experiment: In vitro metabolism, rabbit hepatic microsome; type: in vitro ADME; conditions: 100 μM, microsome protein 1 mg/ml, 37° C., 2 hours
Protocol: as §4, §5

[9] = test system: hepatic microsomal enzyme; experiment: In vitro metabolism, mouse hepatic microsome; type: in vitro ADME; conditions: 100 μM, microsome protein 1 mg/ml, 37° C., 2 hours
Protocol: as §4, §5

[10] = test system: hepatic microsomal enzyme; experiment: In vitro metabolism, human hepatic microsome; type: in vitro ADME; conditions: 100 μM, microsome protein 1 mg/ml, 37° C., 2 hours
Protocol: as §4, §5

CYP2E1 = CYP2E1 (Homo sapiens, UniProt P05181); experiment: chlorozoxazone hydroxylation activity in human hepatic microsome; conditions: 100 μM; CYP2E1, chlorozoxazone (100 μM)
CYP2E1, sequence (P05181 whole entry): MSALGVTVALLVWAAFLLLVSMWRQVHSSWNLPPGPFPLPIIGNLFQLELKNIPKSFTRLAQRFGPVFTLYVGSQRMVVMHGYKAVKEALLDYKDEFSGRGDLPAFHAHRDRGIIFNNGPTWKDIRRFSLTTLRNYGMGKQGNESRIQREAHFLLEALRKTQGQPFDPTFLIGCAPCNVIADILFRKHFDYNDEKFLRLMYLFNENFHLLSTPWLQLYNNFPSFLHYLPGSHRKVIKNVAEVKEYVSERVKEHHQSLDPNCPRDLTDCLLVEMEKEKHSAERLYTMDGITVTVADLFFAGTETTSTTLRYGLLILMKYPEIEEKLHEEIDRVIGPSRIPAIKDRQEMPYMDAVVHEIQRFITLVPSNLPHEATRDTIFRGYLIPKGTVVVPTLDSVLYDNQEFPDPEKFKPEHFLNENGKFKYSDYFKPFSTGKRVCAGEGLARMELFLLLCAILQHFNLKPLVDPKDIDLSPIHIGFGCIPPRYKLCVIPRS
Protocol: as §1, §2, §3

[11] = combination Compound (A-R) & EB
[12] = combination Compound (A-R) & RFP
[13] = human, liver microsomes, pH 7.4, probe coumarin (2 μM), coumarin hydroxylation
[14] = liver microsomes, pH 7.4, probe tolbutamide (400 μM), hydroxylation

In the case of `O=c1cc(-c2ccccc2)oc2c1ccc1ccccc12` [7,8-benzoflavone, reference compound], the “Relative activity (%) for control activity” value (from here on “Relative activity (%)”) (CYP1A1/2; 100 μM, CYP1A1/2, 7-ethoxyresorufin (0.5 μM)) was 3.8%.

In the case of `C[C@]1(COc2ccc(N3CCC(Oc4ccc(OC(F)(F)F)cc4)CC3)cc2)Cn2cc([N+](=O)[O-])nc2O1` [Compound (A-R), (R)-2-methyl-6-nitro-2-{4-[4-(4-trifluoromethoxyphenoxy)piperidin-1-yl]phenoxymethyl}-2,3-dihydroimidazo[2,1-b]oxazole], the activity at 1 μM (CYP2D6) was 102%, the activity at 3 μM (CYP2D6) was 102% and the activity at 30 μM (CYP2D6) was 103%. The generated metabolites [1] was “almost no generated metabolites”, the “effect in short term action” value ([2]; action for 2 hours) was “strong effect” and the “effect against intracellular parasitic tubercle bacillus at the lowest test dose” value ([2]; compound (A-R) 0.1 μg/ml compared with RFP 3 μg/ml) was “equivalent effect of the maximum concentration 3 μg/ml of RFP”. For the same compound, the “Log reduction of bacterial counts compared with time 0 hour (FIG. 2), comparison among antituberculous drugs” value ([2]; test substance for 2 or 4 hours, bacteria collected at 72 hours) was “stronger effect”, the activity at 1 μM (CYP1A1/2; human, microsomes, pH 7.4) was 99.8% and the activity at 10 μM (CYP1A1/2; human, microsomes, pH 7.4) was 98.4%. For the same compound, the activity at 30 μM (CYP1A1/2; human, microsomes, pH 7.4) was 102%, the activity at 100 μM (CYP1A1/2; human, microsomes, pH 7.4) was 98.6% and the generated metabolites [3] was “almost no generated metabolites”. The activity at 1 μM (CYP2B6) was 111%, the activity at 3 μM (CYP2B6) was 109% and the activity at 10 μM (CYP2B6) was 118%. For the same compound, the activity at 30 μM (CYP2B6) was 113%, the activity at 100 μM (CYP2B6) was 122% and the activity at 1 μM (CYP2C8/9; microsomes, pH 7.4) was 107%. The activity at 3 μM (CYP2C8/9; microsomes, pH 7.4) was 111%, the activity at 10 μM (CYP2C8/9; microsomes, pH 7.4) was 107% and the activity at 30 μM (CYP2C8/9; microsomes, pH 7.4) was 108%. The activity at 100 μM (CYP2C8/9; microsomes, pH 7.4) was 108%, the generated metabolites [4] was “almost no generated metabolites” and the activity at 3 μM (CYP2C19) was 109%. The activity at 10 μM (CYP2C19) was 113%, the MIC ([5]; line Compound (A-R) & EB) was 0.012 mg/L and the MIC ([5]; line Compound (A-R) & RFP) was 0.024 mg/L. For the same compound, the MIC in combination [5, 11] was 0.003 mg/L, the MIC in combination [5, 12] was 0.006 mg/L and the “therapeutic effect of intermittent administration compared with once a day administration” value [6] was “equivalent effect”. It also gave an activity at 1 μM (CYP2A6; [13]) of 103%, an activity at 3 μM (CYP2A6; [13]) of 102% and an activity at 10 μM (CYP2A6; [13]) of 103%. The “inhibitory action and stimulation action against each CYP enzyme activity” value [7] was “did not exhibit inhibitory action and stimulation action”, the generated metabolites [8] was “almost no generated metabolites” and the generated metabolites [9] was “almost no generated metabolites”. For the same compound, the generated metabolites [10] was “almost no generated metabolites”.

`CC[C@@H](CO)NCCN[C@@H](CC)CO` [EB, ethambutol, reference compound] was tested, and the MIC ([5]; line Compound (A-R) & EB) was 1.56 mg/L and the MIC in combination [5, 11] was 0.2 mg/L.

Work on `CO[C@H]1/C=C/O[C@@]2(C)Oc3c(C)c(O)c4c(O)c(c(/C=N/N5CCN(C)CC5)c(O)c4c3C2=O)NC(=O)/C(C)=C\C=C\[C@H](C)[C@H](O)[C@@H](C)[C@@H](O)[C@@H](C)[C@H](OC(C)=O)[C@@H]1C` [RFP, rifampicin, reference compound] yielded an MIC in combination [5, 12] of 0.05 mg/L.

For `CCN(CC)C(=S)S` [diethyldithiocarbamine, reference compound], the “Relative activity (%)” value (CYP2E1) was 55.0% and the “Relative activity (%)” value (CYP2A6; 100 μM, CYP2A6, coumarin (2 μM)) was 38.2%.

Work on `Cc1nc2c([nH]1)c(=O)n(C)c(=O)n2Cc1ccco1` [furafylline, reference compound] yielded an activity at 100 μM (CYP1A1/2; human, microsomes, pH 7.4) of 32.3%.

With `O=c1c(O)c(-c2ccc(O)c(O)c2)oc2cc(O)cc(O)c12` [quercetin, reference compound] the activity at 100 μM (CYP2C8/9; [14]) was 30.6%.

`Nc1ccc(S(=O)(=O)Nc2ccnn2-c2ccccc2)cc1` [sulfaphenazole, reference compound] showed an activity at 100 μM (CYP2C8/9; [14]) of 25.5%.

Source: patent US8987304B2, “Antituberculous composition comprising oxazole compounds” (priority 2005, dated 2015)
